Data published in patent US20250145600A1, “2-((4-((S)-2-(4-CHLORO-2-FLUOROPHENYL)-2-METHYLBENZO[D][1,3]DIOXOL-4-YL)PIPERIDIN-1-YL)METHYL)-1-(((S)-OXETAN-2-YL)METHYL)-1H-IMIDAZOLE DERIVATIVES AS ACTIVATORS OF THE GLP1 RECEPTOR FOR THE TREATMENT OF OBESITY” (Novartis AG, priority 2022, published 2025).

Target: human GLP1R (Homo sapiens, UniProt P43220)
Experiment: Human GLP1R DERET internalization assay
Type: cell-based
Details: HEK293-SNAP-hGLP1R-GloSensor cells
Experimental: Compounds of formula (I) according to the invention were tested in the following cellular assays that measure the intracellular cAMP concentration, beta-arrestin recruitment and receptor internalization. The cAMP is generated by the activation of GLP1R. The extent to which the GLP1R is internalized into the cell and away from the plasma membrane following activation is also shown in Table 2. EC50 for each assay is defined as the concentration of the compound that leads to half of the maximum response (after baseline correction). Emax is defined as the maximum response observed for the test compound, normalized to the maximum response observed for the endogenous ligand (GLP1(7-36)) to GLP1R.
Human GLP1R DERET Internalization Assay
The extent to which agonists internalize the human GLP1R was determined based on an optimized version of a RealTime FRET-based ‘DERET’ (Dissociation Enhanced Resonance Energy Transfer) assay. The technology relies on labeling of the SNAP-tagged GPCR with a SNAP-Lumi-Terbium (donor fluorophore, Cisbio, cat #SSNPTBD). The compounds are incubated with the cells over-expressing the GPCR of interest in the presence of an excess of fluorescein (acceptor fluorophore). When the GPCR is on the cell surface, the donor signal is quenched by the acceptor and the donor/acceptor ratio is low. As the GPCR internalizes, the donor signal is no longer quenched, and the acceptor is no longer excited so the donor/acceptor ratio increases.
HEK293-SNAP-hGLP1R-GloSensor cells (stably overexpressing SNAP-tagged hGLP1R) were seeded overnight in white 384-well poly-D-Lysine coated plates (Greiner Bio One, cat #781945) in regular DMEM growth medium (Gibco, cat #11965-092, 10% heat-inactivated FBS, 10 mM HEPES, 1× penicillin/streptomycin, 0.5 mg/mL geneticin (Gibco, cat #10131-035) and 0.25 mg/mL hygromycin B (Invitrogen, cat #10687010). On the assay day, cell medium was removed and 100 nM SNAP-Lumi-Tb reagent was added in Opti-MEM solution. The cells were incubated at 37° C. for 1 h. Cells were washed using a plate washer in assay buffer [1×HBSS (10× Gibco, cat #14065-056), 20 mM Hepes (Gibco, cat #15630-080), 1 mM CaCl2 (Fluka, cat #21114-1L), 1 mM MgCl2 (Ambion, cat #AM9530G) pH7.4], and 20 μL buffer with 0.1% BSA was added to each well. After leaving cells to equilibrate for […] at 37° C., 10 μL of Fluorescein (sodium salt, Sigma, cat #F6377, diluted in buffer) was added at 25 μM final concentration. To generate triplicate dose response curves, compounds were serially diluted 3-fold in assay buffer, then added to the cell assay plate to a final volume of 40 μL and final top concentrations starting at 30 μM. In the same plate and assay buffer as the tested compounds, a GLP1 (7-36) peptide (Bachem, cat #H-6795) control curve was included at a final top concentration of 1 μM in order to establish EC100. EC0 wells with buffer only were also included. The plate FRET fluorescence was measured immediately using a Perkin Elmer Envision with LANCE/DELFIA D400 single mirror, excitation filter X320, and emission filters M615_203 (donor emission) and M515 (acceptor emission), and then measured every 30 min. […] Plates were kept at 37° C. between reads. Data was expressed as the ratio of donor/acceptor emissions using Microsoft Excel and plotted in GraphPad Prism. In order to determine EC50 and Emax for internalization, data was calculated and expressed as percent of the GLP1 (7-36) EC100 control wells: [(sample signal−mean EC0 signal)/(mean EC100 of GLP1 (7-36) signal−mean EC0 signal)]*100 using Microsoft Excel. Curve fitting for EC50 determinations was performed using GraphPad Prism. The 4-parameter logistic model, Hill slope was used:
where Y is the functional response; X is the compound concentration; bottom is A0 or the minimum value (at 0 dose); top is Ainf or the maximum value (at infinite dose); EC50 is the point of inflection (i.e. the point on the sigmoid shaped curve halfway between A0 and Ainf). […]

human GLP1R, sequence (P43220 24-463): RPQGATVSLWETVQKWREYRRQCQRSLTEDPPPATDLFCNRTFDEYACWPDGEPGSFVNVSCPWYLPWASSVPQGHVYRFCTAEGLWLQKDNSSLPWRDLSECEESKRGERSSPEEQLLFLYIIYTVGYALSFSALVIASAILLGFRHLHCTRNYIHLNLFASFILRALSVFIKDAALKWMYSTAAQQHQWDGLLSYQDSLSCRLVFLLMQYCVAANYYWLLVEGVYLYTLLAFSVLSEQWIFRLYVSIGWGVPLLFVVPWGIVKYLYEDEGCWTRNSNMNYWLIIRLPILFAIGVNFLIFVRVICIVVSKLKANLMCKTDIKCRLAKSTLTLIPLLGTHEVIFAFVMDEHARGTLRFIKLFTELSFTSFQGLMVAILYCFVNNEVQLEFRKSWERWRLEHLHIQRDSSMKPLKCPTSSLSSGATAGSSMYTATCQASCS

Work on `Cc1c(-c2ccc(C(=O)O)o2)nc(CN2CCC(c3cccc4c3O[C@@](C)(c3ccc(Cl)cc3F)O4)CC2)n1C[C@@H]1CCO1` [Compound C-24, 5-(2-((4-((S)-2-(4-chloro-2-fluorophenyl)-2-methylbenzo[d][1,3]dioxol-4-yl)piperidin-1-yl)methyl)-5-methyl-1-(((S)-oxetan-2-yl)methyl)-1H-imidazol-4-yl)furan-2-carboxylic acid] yielded an EC50 (top concentration 30 μM) of 490 nM and an Emax (relative to GLP1(7-36)) of 19%.
